Reference: patent US20190262453A1, “DESIGN AND COMPOSITION OF CELL-STABILIZED PHARMACEUTICAL FORMULATIONS” (THE REGENTS OF THE UNIVERSITY OF MICHIGAN, priority 2016, published 2019)
Like-named read-outs stand apart in the source and are kept apart here.

Legend:
[1] = Biochemical analysis of CFZ in tissues; assay type: in vivo; conditions: clodronate-treated mice versus PBS
Experimental: Mice were fed CFZ or a control diet continuously for a four week period. Following two weeks of feeding, liposome treatment began for two weeks. After completing four weeks of feeding and two weeks of liposome treatment, the mice were sacrificed and tissues were collected.
The concentration of CFZ in organs was determined spectrophotometrically. After four weeks of CFZ- or vehicle-diet treatment, mice were euthanized via CO2 asphyxiation, and blood and organs were collected. Tissue (20-30 mg) was homogenized in 500 μL of RIPA buffer, and 350 μL of homogenate was removed drug was extracted with three passes of 1 mL of xylenes. The drug was then extracted from the xylene with three 1 mL passes of 9M sulfuric acid. The concentration of CFZ present in the tissue was then determined using a plate reader at wavelength 450 nm.

[2] = cited from earlier work
RAW264.7 cells [3] = experiment: Cell viability (XTT assay); assay type: cell-based
Experimental: Cell Viability. Viability of RAW264.7 cells were performed using Cell Proliferation Kit II (XTT) (Roche Applied Science, Mannheim, Germany, Cat. No. 11465015001) using the manufacturer's instructions. […] Post 24 hours exposure to CFZ, the cells were incubated with the yellow XTT solution (final concentration 0.3 mg/ml) for 4 h. […] An increase in number of living cells directly correlates to the amount of orange formazan formed, as monitored by the solution absorbance at 500 nm (Abs500). The following formula was used to determine viability of drug and inhibitor treated cells using untreated cells (blank) as a control—Cell Viability=(Abs500, treated—Abs700,treated)/(Abs500, blank—Abs700,blank).

[4] = Mouse body weight and temperature during macrophage depletion and CFZ feeding; assay type: in vivo; conditions: mice, final measurement; four weeks diet, two weeks liposomes
Experimental: Mice (4 week old, male C57B16) were purchased from the Jackson Laboratory (Bar Harbor, Me.) and acclimatized for 1 week in a specific-pathogen-free animal facility. Clofazimine (CFZ) (C8895; Sigma, St. Louis, Mo.) was dissolved in sesame oil (Shirakiku, Japan) to achieve a concentration of 3 mg/ml, which was mixed with Powdered Lab Diet 5001 (PMI International, Inc., St. Louis, Mo.) to produce a 0.03% drug to powdered feed mix, and orally administered ad libitum for 4 weeks. A corresponding amount of sesame oil was mixed with chow for vehicle treatment (control). Mice were euthanized via carbon dioxide asphyxiation and exsanguination. Animal care was provided by the University of Michigan's Unit for Laboratory Animal Medicine (ULAM).
In order to deplete tissue macrophages, mice were treated with liposomes containing either 7 mg/mL clodronate or phosphate-buffered saline (PBS) (FormuMax Scientific Inc., Sunnyvale, Calif.) for up to six weeks. Liposomes were injected IP to eliminate macrophages of the liver, spleen, and peritoneal cavity. Mice were initially treated with 200 μL of liposomes, followed by 100 μL injections twice per week to ensure continual depletion of macrophages. […]
During the course of the experiment, the body weight and temperature of the mice were measured daily to track the impact of the loss of drug-sequestering cells on the general health of the mouse. […]

RAW264.7 cells [5] = system: RAW264.7 cells
Experimental: Drug Uptake. Measurement of CFZ uptake in RAW264.7 cells was performed using a modified absorbance spectroscopy method using 9 M H2SO4 (pH<<0.1) to digest the entire cell population and extract CFZ from the cells. Cells at a very high seeding density of 50,000 cells/well, grown in a 96 well tissue culture plate in 280 μl/well of DMEM +10% FBS +1% P/S (growth media), were pre-incubated with varying concentrations of BafA1 (0-4 nM) and NPPB (0-200 μM) for 4 hours before adding CFZ dissolved in DMSO such that final concentrations of CFZ were in the range of 0-8 μM. Post 4 and 24 hours exposure to CFZ, growth media was aspirated out and the cells were washed with PBS twice before adding 100 μl/well of 9 M H2SO4 and incubated at room temperature for 30 minutes before spectrophotometric quantification using a Synergy 2 plate reader (BioTek, Winooski, Vt.) at 540 nm (Abs540) and 750 nm (Abs750) (for background). Standards were prepared on the same plate by adding 100 μl/well pre-determined standards of CFZ. Total uptake was reported as total picomoles of intracellular drug as measured and calculated using the standard curve.
Cell Viability Measurement: Comparing Wet Lab Experimental Study with Simulation Study. In order to compare wet lab experimental cell viability determination with that of model simulation, the rate at which drug accumulation occurred in the experimental study was calculated. […] Then, cell viability was calculated using the following equation: […]
In vitro analysis (CFZ accumulation). […] Furthermore, the following comparisons are reported as a percentage (%) of CFZ accumulation measured in uninhibited cells under the various tested CFZ concentrations and 8 μM CFZ concentration, in the wet lab experimental and simulation studies, respectively.

## CC(C)N=c1cc2n(-c3ccc(Cl)cc3)c3ccccc3nc-2cc1Nc1ccc(Cl)cc1 [CFZ, 3-(p-chloroanilino)-10-(p-chlorophenyl)-2, 10-dihydro-2-isopropyliminophenazine]
[1]
  reduction in the total amount of drug found in the liver: 75±7%
  reduction in the total amount of drug found in the spleen: 88±7%
[1]; p=0.77
  difference in total amount of drug found in the kidney: no difference
[2]
  pharmacologically-relevant concentrations measured in serum: 1 to 20 μM
RAW264.7 cells [3]; BafA1=4 nM and CFZ=10 μM, n=6
  cell viability: 76±13%
RAW264.7 cells [3]; BafA1=6 nM, all concentrations of CFZ
  cell viability: 48-85%
RAW264.7 cells [3]; BafA1=8 nM, all concentrations of CFZ
  cell viability: 33-77%
RAW264.7 cells [3]; exposed to NPPB (all tested concentrations) prior to varying concentrations of CFZ
  cell viability: > 92%
RAW264.7 cells [3]; incubation of the substance alone, RAW264.7, XTT
  effect on cell viability: no significant effect
RAW264.7 cells [3]; up to 4 nM BafA1 prior to up to 8 μM CFZ
  cell viability: > 91%
[4]
  Average Body Temperature (n = 3-4): 34.3 ± 0.3 °C
  Average Body Weight (n = 3-4): 25.7 ± 0.8 g
RAW264.7 cells [5]; 2 nM BafA1, initial CFZ=4 μM, 4 hours
  CFZ accumulation relative to uninhibited cells: 80±13%
RAW264.7 cells [5]; 2 nM BafA1, initial CFZ=4 μM, 24 hours
  CFZ accumulation relative to uninhibited cells: 67±12%
RAW264.7 cells [5]; 2 nM BafA1, initial CFZ=6 μM, 4 hours
  CFZ accumulation relative to uninhibited cells: 75±11%
RAW264.7 cells [5]; 2 nM BafA1, initial CFZ=6 μM, 24 hours
  CFZ accumulation relative to uninhibited cells: 71±19%
RAW264.7 cells [5]; 2 nM BafA1, initial CFZ=8 μM, 4 hours
  CFZ accumulation relative to uninhibited cells: 63±9%
RAW264.7 cells [5]; 2 nM BafA1, initial CFZ=8 μM, 24 hours
  CFZ accumulation relative to uninhibited cells: 67±12%
RAW264.7 cells [5]; BafA1=4 nM, initial CFZ=4 μM, 4 hours
  CFZ accumulation relative to uninhibited cells: 29±4%
RAW264.7 cells [5]; BafA1=4 nM, initial CFZ=4 μM, 24 hours
  CFZ accumulation relative to uninhibited cells: 42±6%
RAW264.7 cells [5]; BafA1=4 nM, initial CFZ=6 μM, 4 hours
  CFZ accumulation relative to uninhibited cells: 47±9%
RAW264.7 cells [5]; BafA1=4 nM, initial CFZ=6 μM, 24 hours
  CFZ accumulation relative to uninhibited cells: 38±9%
RAW264.7 cells [5]; BafA1=4 nM, initial CFZ=8 μM, 4 hours
  CFZ accumulation relative to uninhibited cells: 43±8%
RAW264.7 cells [5]; BafA1=4 nM, initial CFZ=8 μM, 24 hours
  CFZ accumulation relative to uninhibited cells: 26±4%
RAW264.7 cells [5]; NPPB=50 μM, CFZ=4 μM, 24 hours
  CFZ accumulation relative to uninhibited cells: 73±10%
RAW264.7 cells [5]; NPPB=50 μM, CFZ=6 μM, 24 hours
  CFZ accumulation relative to uninhibited cells: 73±17%
RAW264.7 cells [5]; NPPB=50 μM, CFZ=8 μM, 24 hours
  CFZ accumulation relative to uninhibited cells: 72±10%
RAW264.7 cells [5]; NPPB=100 μM, CFZ=4 μM, 24 hours
  CFZ accumulation relative to uninhibited cells: 46±5%
RAW264.7 cells [5]; NPPB=100 μM, CFZ=6 μM, 24 hours
  CFZ accumulation relative to uninhibited cells: 41±12%
RAW264.7 cells [5]; NPPB=100 μM, CFZ=8 μM, 24 hours
  CFZ accumulation relative to uninhibited cells: 41±7%
RAW264.7 cells [5]; NPPB=200 μM, CFZ=4 μM, 24 hours
  CFZ accumulation relative to uninhibited cells: 30±7%
RAW264.7 cells [5]; NPPB=200 μM, CFZ=6 μM, 24 hours
  CFZ accumulation relative to uninhibited cells: 32±12%
RAW264.7 cells [5]; NPPB=200 μM, CFZ=8 μM, 24 hours
  CFZ accumulation relative to uninhibited cells: 37±7%
RAW264.7 cells [5]; mouse, 8 µM
  rate of drug accumulation: ~0.01 picomol/cell/day
RAW264.7 cells [5]; pre-incubated with various concentrations of NPPB, CFZ for 4 hours at varying concentrations
  change in CFZ accumulation in inhibited relative to uninhibited cells: no significant change
